# In patent publication US11090304B2 (Amgen Inc., priority 2018, dated 2021):
# Target: GDP-bound KRAS protein (aa 1-169), containing both G12C and C118A amino acid substitutions (Homo sapiens, UniProt P01116, C118A/G12C)
# Assay: Coupled nucleotide exchange assay (SOS-mediated, AlphaScreen)
# Type: biochemical
# Settings: 5 min compound pre-incubation
# GDP-bound KRAS protein (aa 1-169), containing both G12C and C118A amino acid substitutions, sequence (P01116 1-169 isoform P01116-2 G12C/C118A): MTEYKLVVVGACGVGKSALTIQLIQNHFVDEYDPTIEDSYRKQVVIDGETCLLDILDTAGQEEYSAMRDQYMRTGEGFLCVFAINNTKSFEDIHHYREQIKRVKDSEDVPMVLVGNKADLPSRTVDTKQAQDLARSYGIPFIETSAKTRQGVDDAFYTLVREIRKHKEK
row,SMILES,Coupled exchange IC50 (5 min)
1,"C=CC(=O)N1CCN(c2nc(=O)n(-c3c(C#N)cccc3C(C)C)c3nc(-c4ccccc4F)c(Cl)cc23)[C@@H](C)C1 (single isomer, unassigned) [Example 60-20-1]",10.2 | nda μM
2,"C=CC(=O)N1CCN(c2nc(=O)n(-c3c(C)ncnc3C3CC3)c3nc(-c4ccccc4F)c(Cl)cc23)[C@@H](C)C1 (single isomer, unassigned) [Example 60-30-1]",1.26 | nda μM
3,"C=CC(=O)N1CCN(c2nc(=O)n(-c3c(C)cccc3C(C)C)c3nc(-c4c(O)cccc4F)c(F)cc23)C(C)(C)C1 (single isomer, unassigned) [Example 63-4]",1.15 | nda μM
4,"C=CC(=O)N1CCN(c2nc(=O)n(-c3ccccc3C(C)C)c3nc(-c4cccs4)c(Cl)cc23)[C@@H](C)C1 (single isomer, unassigned) [Example 67-4-1]",7.34 | nda μM
5,"C=CC(=O)N1CCN(c2nc(=O)n(-c3ccccc3C(C)C)c3nc(-c4cccs4)c(Cl)cc23)[C@@H](C)C1 (single isomer, unassigned) [Example 67-4-2]",1.91 | nda μM
6,"C=CC(=O)N1CCN(c2nc(=O)n(-c3c(C)cccc3C(C)C)c3nc(-c4c(C)ccc5[nH]ncc45)c(F)cc23)[C@@H](C)C1 (single isomer, unassigned) [Example 68-2-1]",5.29 | nda μM
7,"C=CC(=O)N1CCN(c2nc(=O)n(-c3ccccc3C(C)C)c3nc(N4CCCCC4)c(Cl)cc23)[C@@H](C)C1 (single isomer, unassigned) [Example 69-1-1]",44.1 | nda μM
8,"C=CC(=O)N1CCN(c2nc(=O)n(-c3c(C)cccc3C(C)C)c3nc(-c4nc(N)ccc4Cl)c(F)cc23)[C@@H](C)C1 (single isomer, unassigned) [Example 71-1-2]",4.89 | nda μM
9,"C=CC(=O)N1CCN(c2nc(=O)n(-c3c(C)cccc3C(C)C)c3nc(-c4nc(N)cc5ccccc45)c(F)cc23)[C@@H](C)C1 (single isomer, unassigned) [Example 71-2-1]",8.7 | nda μM
10,"C=CC(=O)N1CCN(c2nc(=O)n(-c3c(C)cccc3C(C)C)c3nc(-c4nc(N)cc5ccccc45)c(F)cc23)[C@@H](C)C1 (single isomer, unassigned) [Example 71-2-2]",1.06 | nda μM
11,"C=CC(=O)N1CCN(c2nc(=O)n(-c3ccccc3C(C)C)c3nc(-c4ccccc4F)c(C)cc23)[C@@H](C)C1 (single isomer, unassigned) [Example 74-1-1]",2.16 | nda μM
12,"C=CC(=O)N1CCN(c2nc(=O)n(-c3c(C)ccnc3C(C)C)c3nc(-c4c(O)cccc4F)c(C)cc23)[C@@H](C)C1 (single isomer, unassigned) [Example 74-3-2]",1.12 | nda μM
13,"C=CC(=O)NC1CN(c2nc(=O)n(-c3c(C)ccnc3C(C)C)c3nc(-c4c(O)cccc4F)c(F)cc23)C1 (single isomer, unassigned) [Example 75-6, (M)-N-(1-(6-fluoro-7-(2-fluoro-6-hydroxyphenyl)-1-(4-methyl-2-(2-propanyl)-3-pyridinyl)-2-oxo-1,2-dihydropyrido[2,3-d]pyrimidin-4-yl)-3-azetidinyl)-2-propenamide]",85 | nda μM
14,"C=CC(=O)N1CCN(c2nc(=O)n(-c3c(C)ccnc3C(C)C)c3nc(-c4c(O)cccc4F)c(F)cc23)[C@H](C(F)F)C1 (single isomer, unassigned) [Example 75-9-1, (M)-4-((2S or 2R)-2-(difluoromethyl)-4-(2-propenoyl)-1-piperazinyl)-6-fluoro-7-(2-fluoro-6-hydroxyphenyl)-1-(4-methyl-2-(2-propanyl)-3-pyridinyl)pyrido[2,3-d]pyrimidin-2(1H)-one]",1.87 | nda μM
15,"C=CC(=O)N1CCN(c2nc(=O)n(-c3c(C)ccnc3C(C)C)c3nc(-c4ccccc4F)c(Cl)cc23)[C@H](C(F)F)C1 (single isomer, unassigned) [Example 78-3-1]",1.19 | nda μM
16,"C=CC(=O)N1CCN(c2nc(=O)n(-c3c(C)ccnc3C(C)C)c3nc(-c4ccccc4F)c(Cl)cc23)C2(CC2)C1 (single isomer, unassigned) [Example 78-4, (M)-6-chloro-7-(2-fluorophenyl)-1-(4-methyl-2-(2-propanyl)-3-pyridinyl)-4-(7-(2-propenoyl)-4,7-diazaspiro[2.5]octan-4-yl)pyrido[2,3-d]pyrimidin-2(1H)-one]",30.3 | nda μM
17,"C=CC(=O)N1CCN(c2nc(=O)n(-c3c(C)ccnc3C(C)C)c3nc(-c4ccccc4F)c(Cl)cc23)[C@H](C(F)(F)F)C1 (single isomer, unassigned) [Example 78-9-1]",1.26 | nda μM
18,"C=CC(=O)N1CCN(c2nc(=O)n(-c3c(C)ccnc3C(C)C)c3nc(-c4ccccc4F)c(Cl)cc23)[C@@H](C(F)(F)F)C1 (single isomer, unassigned) [Example 78-9-2]",0.423 | nda μM

row,SMILES,Coupled exchange IC50 (5 min)
1,"C=CC(=O)NCCNc1nc(=O)n(-c2c(C)ccnc2C(C)C)c2nc(-c3ccccc3F)c(Cl)cc12 (single isomer, unassigned) [Example 78-12, (M)-N-(2-((6-chloro-7-(2-fluorophenyl)-1-(4-methyl-2-(2-propanyl)-3-pyridinyl)-2-oxo-1,2-dihydropyrido[2,3-d]pyrimidin-4-yl)amino)ethyl)-2-propenamide]",15.4 | nda μM
2,"C=CC(=O)N1C[C@H]2CC[C@@H](C1)N2c1nc(=O)n(-c2c(C)ccnc2C(C)C)c2nc(-c3ccccc3F)c(Cl)cc12 (single isomer, unassigned) [Example 78-13, (M)-6-chloro-7-(2-fluorophenyl)-1-(4-methyl-2-(2-propanyl)-3-pyridinyl)-4-(3-(2-propenoyl)-3,8-diazabicyclo[3.2.1]octan-8-yl)pyrido[2,3-d]pyrimidin-2(1H)-one]",2.22 | nda μM
3,"C=CC(=O)N1C[C@@H](C)N(c2nc(=O)n(-c3c(C)ccnc3C(C)C)c3nc(-c4ccccc4F)c(Cl)cc23)[C@H](C)C1 (single isomer, unassigned) [Example 78-16]",16.6 | nda μM
4,"C=CC(=O)N1C[C@H]2C[C@@H](C1)N2c1nc(=O)n(-c2c(C)ccnc2C(C)C)c2nc(-c3ccccc3F)c(Cl)cc12 (single isomer, unassigned) [Example 78-17, (M)-6-chloro-7-(2-fluorophenyl)-1-(4-methyl-2-(2-propanyl)-3-pyridinyl)-4-(3-(2-propenoyl)-3,6-diazabicyclo[3.1.1]heptan-6-yl)pyrido[2,3-d]pyrimidin-2(1H)-one]",26 | nda μM
5,"C=CC(=O)N1CCN(c2nc(=O)n(-c3c(C)cc(CO)cc3C(C)C)c3nc(-c4ccccc4F)c(Cl)cc23)[C@@H](C)C1 (single isomer, unassigned) [Example 80-2-1]",0.824 | nda μM
6,"C=CC(=O)N1CCN(c2nc(=O)n(-c3ccccc3C(C)C)c3nc(-c4c(F)cccc4C#N)c(Cl)cc23)[C@@H](C)C1 (single isomer, unassigned) [Example 98-2]",3.38 | nda μM
7,"C=CC(=O)N1CCN(c2nc(=O)n(-c3c(C)cccc3C(C)C)c3nc(-c4ccccc4F)c(C)cc23)[C@@H](C)C1 (single isomer, unassigned) [Example 102-1]",3.45 | nda μM
8,"C=CC(=O)N1CCN(c2nc(=O)n(-c3ccccc3C(C)C)c3cc(-c4ccccc4F)c(Cl)nc23)[C@@H](C)C1 (single isomer, unassigned) [Example 110-1]",3.22 | nda μM
9,"C=CC(=O)N1CCN(c2nc(=O)n(-c3c(C)ccnc3C(C)C)c3nc(-c4ccccc4F)c(Cl)nc23)[C@@H](C)C1 (single isomer, unassigned) [Example 111-2]",0.86 | nda μM
10,"C=CC(=O)N1CCN(c2nc(=O)n(-c3c(C)cccc3C(C)C)c3nc(-c4cc(Cl)ccc4O)c(F)cc23)[C@@H](C)C1 (single isomer, unassigned) [Example 113]",1.02 | nda μM
11,"C=CC(=O)N1CCN(c2nc(=O)n(-c3c(C)cccc3C(C)C)c3nc(-c4cc(Cl)ccc4O)c(F)cc23)[C@@H](C)C1 (single isomer, unassigned) [Example 114]",6.435 | nda μM
12,"C=CC(=O)N1CCN(c2nc(=O)n(-c3c(C(C)C)ncnc3N(C)C)c3nc(-c4ccccc4F)c(Cl)cc23)[C@@H](C)C1 (single isomer, unassigned) [Example 140-2]",0.677 | nda μM
13,"C=CC(=O)N1CCN(c2nc(=O)n(-c3c(C(N)=O)cccc3C(C)C)c3nc(-c4ccccc4F)c(Cl)cc23)[C@@H](C)C1 (single isomer, unassigned) [Example 142-1]",23.9 | nda μM
14,"C=CC(=O)N1CCN(c2nc(=O)n(-c3c(N)cccc3C(C)C)c3nc(-c4ccccc4F)c(Cl)cc23)[C@@H](C)C1 (single isomer, unassigned) [Example 155-2]",13.5 | nda μM
15,"C=CC(=O)N1CCN(c2nc(=O)n(-c3c(C)cccc3C(C)C)c3nc(-c4nc(N)cc5ccccc45)c(F)cc23)[C@@H](C)C1 [71-2, 7-(3-amino-1-isoquinolinyl)-6-fluoro-1-(2-methyl-6-(2-propanyl)phenyl)-4-((2S)-2-methyl-4-(2-propenoyl)-1-piperazinyl)pyrido[2,3-d]pyrimidin-2(1H)-one]",2.17 | nda μM
16,C=CC(=O)N1CC(N(C)c2nc(=O)n(-c3c(C)ccnc3C(C)C)c3nc(-c4ccccc4F)c(Cl)cc23)C1 [76-2],20.1 | nda μM
17,"C=CC(=O)N1CCN(c2nc(=O)c(-c3ccccc3C)c3cc(-c4ccccc4F)c(C)nn23)[C@@H](C)C1 [77-2, 3-(2-fluorophenyl)-2-methyl-5-(2-methylphenyl)-8-((2S)-2-methyl-4-(2-propenoyl)-1-piperazinyl)-6H-pyrimido[1,6-b]pyridazin-6-one]",77.7 | nda μM
